Experimental data published in patent US6472348B1, “Pyridone derivatives and herbicides” (Kumiai Chemical Industry Co., Ltd., priority 1996, dated 2002).

Experiments:
slender amaranth (Am) [1] = assay: Test Example 11: crop plant selectivity by upland field foliage treatment (corn), herbicidal effects; assay type: in vivo; parameters: scale not given here; details: dose 1.6 g ai/10a
Description: (§1) (Test on Crop Plant Selectivity by Upland Field Foliage Treatment)
(§2) In a plastic pot (surface area: 600 cm^2) filled with sand, corn (Ze), pale smartweed (Po), slender amaranth (Am), common lambsquarters (Ch) and China jute (Ab) were sown and cultured in a green house for 2 weeks. […] The plants were then cultured in a green house, and the evaluation of the herbicidal effects and phytotoxicity was conducted on the 14th day after the treatment in accordance with the standards as identified in Table 47.

China jute (Ab) [2] = assay: as above; assay type: in vivo; parameters: scale not given here; details: dose 1.6 g ai/10a
Description: as §1, §2

pale smartweed (Po) [3] = assay: as above; assay type: in vivo; parameters: scale not given here; details: dose 1.6 g ai/10a
Description: as §1, §2

[4] = system: common lambsquarters (Ch); assay: as above; assay type: in vivo; parameters: scale not given here; details: dose 1.6 g ai/10a
Description: as §1, §2

corn (Ze) = assay: Test Example 11: crop plant selectivity by upland field foliage treatment (corn), phytotoxicity; details: dose 1.6 g ai/10a
Description: as §1, §2

bulrush (Sc) = assay: Test Example 1: herbicidal effects by paddy field soil treatment; assay type: in vivo; details: 100 g of the active ingredient per 10 ares, 21st day after the application, index 0-5 of Table 47;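 note: grade of growth control; 5 = at least 90%; 4 = 70 to 90%; 3 = 50 to 70%; 2 = 30 to 50%; 1 = 10 to 30%; 0 = under 10%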
Summary of the method: (§3)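 Greenhouse pot test in flooded paddy soil, dosed at 100 g a.i. per 10 ares; effect scored on day 21.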

barnyardgrass (Ec) [5] = assay: as above; assay type: in vivo; details: 100 g of the active ingredient per 10 ares, 21st day after the application, index 0-5 of Table 47
Summary of the method: as §3

monochoria (Mo) = assay: as above; assay type: in vivo; details: 100 g of the active ingredient per 10 ares, 21st day after the application, index 0-5 of Table 47;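 note: grade of growth control; 5 = at least 90%; 4 = 70 to 90%; 3 = 50 to 70%; 2 = 30 to 50%; 1 = 10 to 30%; 0 = under 10%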
Summary of the method: as §3

slender amaranth (Am) [6] = assay: Test Example 2: herbicidal effects by upland field soil treatment; assay type: in vivo; details: 100 g of the active ingredient per 10 ares, evaluated on the 21st day after application;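 note: grade of growth control; 5 = at least 90%; 4 = 70 to 90%; 3 = 50 to 70%; 2 = 30 to 50%; 1 = 10 to 30%; 0 = under 10%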
Source text: (§4) (Test on Herbicidal Effects by Upland Field Soil Treatment)

barnyardgrass (Ec) [7] = assay: as above; assay type: in vivo; details: 100 g of the active ingredient per 10 ares, evaluated on the 21st day after application
Source text: as §4

rice flatsedge (Ci) [8] = assay: as above; assay type: in vivo; details: 100 g of the active ingredient per 10 ares, evaluated on the 21st day after application
Source text: as §4

pale smartweed (Po) [9] = assay: as above; assay type: in vivo; details: 100 g of the active ingredient per 10 ares, evaluated on the 21st day after application
Source text: as §4

Digitaria ciliaris (Di) = assay: as above; assay type: in vivo; details: 100 g of the active ingredient per 10 ares, evaluated on the 21st day after application;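 note: grade of growth control; 5 = at least 90%; 4 = 70 to 90%; 3 = 50 to 70%; 2 = 30 to 50%; 1 = 10 to 30%; 0 = under 10%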
Source text: as §4

[10] = system: common lambsquarters (Ch); assay: as above; assay type: in vivo; details: 100 g of the active ingredient per 10 ares, evaluated on the 21st day after application
Source text: as §4

slender amaranth (Am) [11] = assay: Test Example 9: crop plant selectivity by upland field foliage treatment (wheat), herbicidal effects; assay type: in vivo; parameters: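 grade of growth control; 5 = at least 90%; 4 = 70 to 90%; 3 = 50 to 70%; 2 = 30 to 50%; 1 = 10 to 30%; 0 = under 10%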; details: dose 1.6 g ai/10a, 14th day after treatment
Summary of the method: (§5)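 Read-out: weed control and wheat injury, rated by a defined scoring standard 14 days after foliar application.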

China jute (Ab) [12] = assay: as above; assay type: in vivo; parameters: scale not given here; details: dose 1.6 g ai/10a, 14th day after treatment
Summary of the method: as §5

pale smartweed (Po) [13] = assay: as above; assay type: in vivo; parameters: scale not given here; details: dose 1.6 g ai/10a, 14th day after treatment
Summary of the method: as §5

[14] = system: common lambsquarters (Ch); assay: as above; assay type: in vivo; parameters: scale not given here; details: dose 1.6 g ai/10a, 14th day after treatment
Summary of the method: as §5

wheat (Tr) = assay: Test Example 9: crop plant selectivity by upland field foliage treatment (wheat), phytotoxicity; details: dose 1.6 g ai/10a, 14th day after treatment
Summary of the method: as §5

slender amaranth (Am) [15] = assay: Test Example 3: herbicidal effects by upland field foliage treatment; assay type: in vivo; parameters: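 grade of growth control; 5 = at least 90%; 4 = 70 to 90%; 3 = 50 to 70%; 2 = 30 to 50%; 1 = 10 to 30%; 0 = under 10%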; details: 100 g active ingredient per 10 ares, evaluated 14th day after treatment
Summary of the method: (§6)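 Two-week-old greenhouse seedlings, raised in sand-filled pots (120 cm^2) with seed covered by soil, receive a foliar application. Effects are then evaluated by standard grades 14 days later, plants remaining in the greenhouse meanwhile.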

barnyardgrass (Ec) [16] = assay: as above; assay type: in vivo; parameters: scale not given here; details: 100 g active ingredient per 10 ares, evaluated 14th day after treatment
Summary of the method: as §6

rice flatsedge (Ci) [17] = assay: as above; assay type: in vivo; parameters: scale not given here; details: 100 g active ingredient per 10 ares, evaluated 14th day after treatment
Summary of the method: as §6

Diaitaria ciliaris (Di) = assay: as above; assay type: in vivo; parameters: scale not given here; details: 100 g active ingredient per 10 ares, evaluated 14th day after treatment
Summary of the method: as §6

pale smartweed (Po) [18] = assay: as above; assay type: in vivo; parameters: scale not given here; details: 100 g active ingredient per 10 ares, evaluated 14th day after treatment
Summary of the method: as §6

[19] = system: common lambsquarters (Ch); assay: as above; assay type: in vivo; parameters: scale not given here; details: 100 g active ingredient per 10 ares, evaluated 14th day after treatment
Summary of the method: as §6

[20] = upland field foliage treatment (corn test), 14th day after treatment
[21] = upland field foliage treatment, 14th day after treatment

SMILES	Herbicidal effects Sc (bulrush (Sc))	Herbicidal effects Ec (barnyardgrass (Ec) [5])	Herbicidal effects Mo (monochoria (Mo))	Herbicidal effects Am (slender amaranth (Am) [6])	Herbicidal effects Ec (barnyardgrass (Ec) [7])	Herbicidal effects Ci (rice flatsedge (Ci) [8])	Herbicidal effects Po (pale smartweed (Po) [9])	Herbicidal effects Di (Digitaria ciliaris (Di))	Herbicidal effects Ch [10]	Herbicidal effects Am (slender amaranth (Am) [11])	Herbicidal effects Ab (China jute (Ab) [12])	Herbicidal effects Po (pale smartweed (Po) [13])	Herbicidal effects Ch [14]	Phytotoxicity Tr (wheat (Tr))	Herbicidal effects Am (slender amaranth (Am) [15])	Herbicidal effects Ec (barnyardgrass (Ec) [16])	Herbicidal effects Ci (rice flatsedge (Ci) [17])	Herbicidal effects Di (Diaitaria ciliaris (Di))	Herbicidal effects Po (pale smartweed (Po) [18])	Herbicidal effects Ch [19]	other results
COCOCc1cc(-c2ccc(C(F)(F)F)n(C)c2=O)c(F)cc1Cl [Compound 1-200]	5	5	5	5	5	5	5	5	5	5	5	5	5	2	5	5	5	5	5	5	Herbicidal effects Am (slender amaranth (Am) [1]; [20]): 5; Herbicidal effects Ab (China jute (Ab) [2]; [20]): 5; Herbicidal effects Po (pale smartweed (Po) [3]; [20]): 5; Herbicidal effects Ch [4, 20]: 5; Phytotoxicity Ze (corn (Ze); [21]): 2
Cn1c(C(F)(F)F)ccc(-c2cc(COC3CCCC3)c(Cl)cc2F)c1=O [Compound 1-201]	5	5	5	5	5	5	5	5	5	5	5	5	5	2	5	4	5	5	5	5	Herbicidal effects Am (slender amaranth (Am) [1]; [20]): 5; Herbicidal effects Ab (China jute (Ab) [2]; [20]): 5; Herbicidal effects Po (pale smartweed (Po) [3]; [20]): 5; Herbicidal effects Ch [4, 20]: 5; Phytotoxicity Ze (corn (Ze); [21]): 2
C=C(Cl)COc1cc(-c2ccc(C(F)(F)F)n(C)c2=O)c(F)cc1Cl [Compound 1-203]	5	5	5	5	5	5	5	5	5	5	5	5	5	2	5	5	5	5	5	5	Herbicidal effects Am (slender amaranth (Am) [1]; [20]): 5; Herbicidal effects Ab (China jute (Ab) [2]; [20]): 5; Herbicidal effects Po (pale smartweed (Po) [3]; [20]): 5; Herbicidal effects Ch [4, 20]: 5; Phytotoxicity Ze (corn (Ze); [21]): 2
Cn1c(C(F)(F)F)ccc(-c2cc(OCCCF)c(Cl)cc2F)c1=O [Compound 1-204]	5	5	5	5	5	5	5	5	5	5	5	5	5	2	5	5	5	5	5	5	Herbicidal effects Am (slender amaranth (Am) [1]; [20]): 5; Herbicidal effects Ab (China jute (Ab) [2]; [20]): 5; Herbicidal effects Po (pale smartweed (Po) [3]; [20]): 5; Herbicidal effects Ch [4, 20]: 5; Phytotoxicity Ze (corn (Ze); [21]): 2
COCN1C(=O)COc2cc(F)c(-c3ccc(C(F)(F)F)n(C)c3=O)cc21 [Compound 2-19]	5	5	5	5	5	5	5	5	5	5	5	5	5	1	5	5	5	5	5	5	Herbicidal effects Am (slender amaranth (Am) [1]; [20]): 5; Herbicidal effects Ab (China jute (Ab) [2]; [20]): 5; Herbicidal effects Po (pale smartweed (Po) [3]; [20]): 5; Herbicidal effects Ch [4, 20]: 5; Phytotoxicity Ze (corn (Ze); [21]): 1
C=CCn1c(=O)sc2cc(F)c(-c3ccc(C(F)(F)F)n(C)c3=O)cc21 [Compound 3-5]	5	5	5	5	5	5	5	5	5	5	5	5	5	1	5	5	5	5	5	5	Herbicidal effects Am (slender amaranth (Am) [1]; [20]): 5; Herbicidal effects Ab (China jute (Ab) [2]; [20]): 5; Herbicidal effects Po (pale smartweed (Po) [3]; [20]): 5; Herbicidal effects Ch [4, 20]: 5; Phytotoxicity Ze (corn (Ze); [21]): 2
Cn1c(C(F)(F)F)ccc(-c2cc3c(cc2F)sc(=O)n3C)c1=O [Compound 3-6]	5	5	5	5	5	5	5	5	5	5	5	5	5	2	5	5	5	5	5	5	Herbicidal effects Am (slender amaranth (Am) [1]; [20]): 5; Herbicidal effects Ab (China jute (Ab) [2]; [20]): 5; Herbicidal effects Po (pale smartweed (Po) [3]; [20]): 5; Herbicidal effects Ch [4, 20]: 5; Phytotoxicity Ze (corn (Ze); [21]): 2
CCCc1cc2c(Cl)cc(F)c(-c3ccc(C(F)(F)F)n(C)c3=O)c2o1 [Compound 5-3]	5	5	5	5	5	5	5	5	5	5	5	5	5	1	5	5	5	5	5	5	Herbicidal effects Am (slender amaranth (Am) [1]; slender amaranth, foliage treatment, evaluated on 14th day after treatment, index per Table 47): 5; Herbicidal effects Ab (China jute (Ab) [2]; China jute, foliage treatment, evaluated on 14th day after treatment, index per Table 47): 5; Herbicidal effects Po (pale smartweed (Po) [3]; pale smartweed, foliage treatment, evaluated on 14th day after treatment, index per Table 47): 5; Herbicidal effects Ch ([4]; common lambsquarters, foliage treatment, evaluated on 14th day after treatment, index per Table 47): 5; Phytotoxicity Ze (corn (Ze); corn, foliage treatment, evaluated on 14th day after treatment, index per Table 47): 2
